Data as given in PubChem BioAssay (NCI).
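48-hour exposure; five concentrations; linearly interpolated endpoints. The concentration for 50% growth inhibition is given as GI50. TGI denotes the concentration required for complete inhibition of growth.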

Legend:
Experiment in all cases: NCI-60 cell line screen, 48 h
A549 NSCLC = test system: A549 NSCLC
COLO 205 colon = test system: COLO 205 colon
DU-145 prostate = test system: DU-145 prostate
HT29 colon = test system: HT29 colon
IGROV1 ovarian = test system: IGROV1 ovarian
LOX IMVI melanoma = test system: LOX IMVI melanoma
NCI-H23 lung = test system: NCI-H23 lung
OVCAR-5 ovarian = test system: OVCAR-5 ovarian
OVCAR-8 ovarian = test system: OVCAR-8 ovarian
UO-31 renal = test system: UO-31 renal

O=C1OC(c2ccc([N+](=O)[O-])cc2)=N/C1=C\c1ccc(Cl)cc1
TGI (A549 NSCLC): > 100 µM
TGI (COLO 205 colon): > 100 µM
TGI (DU-145 prostate): > 100 µM
TGI (HT29 colon): > 100 µM
TGI (IGROV1 ovarian): > 100 µM
TGI (LOX IMVI melanoma): > 100 µM
TGI (NCI-H23 lung): > 100 µM
TGI (OVCAR-5 ovarian): > 100 µM
TGI (OVCAR-8 ovarian): > 100 µM

COCN1COCN(C)C1=O
TGI (A549 NSCLC): > 100 µM
TGI (COLO 205 colon): > 100 µM
TGI (HT29 colon): > 100 µM
TGI (IGROV1 ovarian): > 100 µM
TGI (LOX IMVI melanoma): > 100 µM
TGI (NCI-H23 lung): > 100 µM
TGI (OVCAR-5 ovarian): > 100 µM
TGI (OVCAR-8 ovarian): > 100 µM
TGI (UO-31 renal): > 100 µM

O=C(CC1(O)C(=O)Nc2ccccc21)c1ccc(Cl)c(Cl)c1 (stereo not given)
TGI (A549 NSCLC): > 100 µM
TGI (COLO 205 colon): > 100 µM
TGI (HT29 colon): > 100 µM
TGI (IGROV1 ovarian): > 100 µM
TGI (LOX IMVI melanoma): > 100 µM
TGI (NCI-H23 lung): > 100 µM
TGI (OVCAR-5 ovarian): > 100 µM
TGI (UO-31 renal): > 100 µM

CC(C)(C)c1cc(C2c3cc4c(cc3OC(O)(CO)C2C(=O)O)OCO4)cc(C(C)(C)C)c1O (stereo not given) (tested in a mixture with another compound)
TGI (A549 NSCLC): 48.1 µM
TGI (COLO 205 colon): 37.8 µM
TGI (HT29 colon): 27.2 µM
TGI (IGROV1 ovarian): 48.6 µM
TGI (LOX IMVI melanoma): 29.1 µM
TGI (NCI-H23 lung): 29.6 µM
TGI (OVCAR-8 ovarian): 33.9 µM
TGI (UO-31 renal): 26.6 µM

N#CN1CC[C@@H]2CC3(CCC2C1)OCCO3 (stereo not given in full)
TGI (A549 NSCLC): > 100 µM
TGI (COLO 205 colon): > 100 µM
TGI (HT29 colon): > 100 µM
TGI (IGROV1 ovarian): > 100 µM
TGI (NCI-H23 lung): > 100 µM
TGI (OVCAR-5 ovarian): > 100 µM
TGI (OVCAR-8 ovarian): > 100 µM
TGI (UO-31 renal): > 100 µM

COc1ccc(C2=C(OC(C)=O)c3cccn3-c3ccc(Cl)cc3S2)cc1
TGI (A549 NSCLC): > 10 µM
TGI (COLO 205 colon): > 10 µM
TGI (DU-145 prostate): > 10 µM
TGI (HT29 colon): > 10 µM
TGI (IGROV1 ovarian): > 10 µM
TGI (LOX IMVI melanoma): > 10 µM
TGI (NCI-H23 lung): > 10 µM
TGI (OVCAR-8 ovarian): > 10 µM

O=C(c1ccc(Cl)cc1Cl)N1CCN(C(=O)c2ccc(Cl)cc2Cl)C1=S
GI50 (A549 NSCLC): 20.1 µM
TGI (A549 NSCLC): 43.2 µM
GI50 (COLO 205 colon): 21 µM
TGI (COLO 205 colon): 37.7 µM
GI50 (DU-145 prostate): 30.6 µM
TGI (DU-145 prostate): 98.9 µM
GI50 (HT29 colon): 20.4 µM
TGI (HT29 colon): 48.9 µM
GI50 (IGROV1 ovarian): 21 µM
TGI (IGROV1 ovarian): 46 µM
GI50 (LOX IMVI melanoma): 17.1 µM
TGI (LOX IMVI melanoma): 30.8 µM
GI50 (NCI-H23 lung): 19.8 µM
TGI (NCI-H23 lung): 43.4 µM
GI50 (OVCAR-5 ovarian): 21.6 µM
TGI (OVCAR-5 ovarian): 60.4 µM
GI50 (OVCAR-8 ovarian): 22.1 µM
TGI (OVCAR-8 ovarian): 48.5 µM

CN(C)CCCNc1ccnc2c([N+](=O)[O-])cccc12
TGI (A549 NSCLC): 75.5 µM
TGI (COLO 205 colon): 5.34 µM
TGI (HT29 colon): 12.1 µM
TGI (LOX IMVI melanoma): 39 µM
TGI (NCI-H23 lung): 31.3 µM
TGI (OVCAR-8 ovarian): 61.6 µM
TGI (UO-31 renal): > 100 µM
